Source: PubChem BioAssay (NCI)
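Five concentrations, 48 hours, 96-well plates. GI50 marks 50% less growth. TGI: total growth inhibition.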

How the values were obtained:
Test in all cases: NCI anticancer screen, dose series, 48 h
COLO 205 colon = tested on: COLO 205 colon
HCT-116 colon = tested on: HCT-116 colon
IGROV1 ovarian = tested on: IGROV1 ovarian
MCF7 breast = tested on: MCF7 breast
OVCAR-3 ovarian = tested on: OVCAR-3 ovarian
RPMI-8226 leukemia = tested on: RPMI-8226 leukemia
RXF 393 renal = tested on: RXF 393 renal
SF-268 CNS = tested on: SF-268 CNS
SF-539 CNS = tested on: SF-539 CNS
HL-60(TB) leukemia = tested on: HL-60(TB) leukemia

SMILES | TGI (COLO 205 colon) [µM] | TGI (HCT-116 colon) [µM] | TGI (IGROV1 ovarian) [µM] | TGI (MCF7 breast) [µM] | TGI (OVCAR-3 ovarian) [µM] | TGI (RPMI-8226 leukemia) [µM] | TGI (RXF 393 renal) [µM] | TGI (SF-268 CNS) [µM] | TGI (SF-539 CNS) [µM] | TGI (HL-60(TB) leukemia) [µM] | GI50 (COLO 205 colon) [µM] | GI50 (HCT-116 colon) [µM] | GI50 (MCF7 breast) [µM] | GI50 (RPMI-8226 leukemia) [µM] | GI50 (RXF 393 renal) [µM] | GI50 (SF-268 CNS) [µM] | GI50 (IGROV1 ovarian) [µM] | GI50 (SF-539 CNS) [µM] | GI50 (OVCAR-3 ovarian) [µM] | GI50 (HL-60(TB) leukemia) [µM]
C/C(=N\NS(=O)(=O)c1ccc(C)cc1)P(=O)(O)O | > 100 | > 100 | > 100 | > 100 | > 100 | > 100 | > 100 | > 100 | > 100 |  |  |  |  |  |  |  |  |  |  | 
CC(Nc1ccc(S(=O)(=O)N=C(N)N)cc1)c1c2ccccc2nc2ccccc12 (configuration not stated) | > 100 | > 10 | > 100 |  | > 10 | 55.2 | 85.3 | > 100 | 63.4 | 39.2 |  |  |  |  |  |  |  |  |  | 
O=C(Nc1ccc(Cl)c(Cl)c1)Nc1c(Oc2ccc(Cl)c(Cl)c2)ccc(Cl)c1S(=O)(=O)O | > 100 | > 100 |  | > 100 |  | > 100 | 5.64 | > 100 |  |  | 2.39 | 1.32 | 0.388 | 2.91 | 1.92 | 3.82 |  |  |  | 
CO/N=C(\C)c1ccc(Nc2cc(-c3ccccc3)nc3ccc(OC)cc23)cc1 | > 100 | 3.77 | > 100 | 24.4 |  | 9.64 |  | 28.8 | 4.74 |  | 7.02 | 1.76 | 5.01 | 2.79 |  | 10.2 | 4.56 | 2.72 |  | 
O=c1ncc(F)cn1C1OC(CO)C(O)C1O (configuration not stated) | > 37.9 | > 100 | > 80 |  | > 67.4 | > 100 | > 100 | > 77.4 | > 88 | > 52 |  |  |  |  |  |  |  |  |  | 
COC(=O)C(C(=O)OC)C1CCCC(=O)C1 (configuration not stated) | > 100 | > 100 | > 100 |  | > 100 | > 100 | > 100 | > 100 | > 100 | > 100 |  |  |  |  |  |  |  |  |  | 
COC(=O)C(C(=O)C(=O)Nc1ccc([N+](=O)[O-])cc1[N+](=O)[O-])c1nc2ccc(Cl)cc2[nH]c1=O (configuration not stated) | > 100 | > 100 | > 100 |  | > 100 | > 100 | > 100 | > 100 | > 100 | > 100 |  |  |  |  |  |  |  |  |  | 
C#CCSc1cc(Cl)c(C)cc1S(=O)(=O)Nc1nc2ccccc2o1 | 71.7 | 55.1 | > 100 | > 100 | 76.9 | > 100 | > 100 | > 100 | 39.1 |  | 26 | 24.5 | 49.7 | 38.1 | 32.9 | 59.8 | 34.8 | 20.2 | 31.9 | 
CN1C(=O)C2C3C=C4c5ccccc5N(c5ccccc5)C4(C2C1=O)[C@H]1C(=O)N(C)C(=O)[C@@H]31 (some centres not stated) | > 100 | > 100 |  |  | > 100 | > 100 |  | > 100 |  | > 100 |  |  |  |  |  |  |  |  |  | 
CN(C)CCNC(=O)c1cccc(N(C)C(=O)c2ccccc2)c1[N+](=O)[O-] | > 10 | > 100 | > 100 | > 100 | > 100 |  |  | > 100 | > 100 | > 100 |  |  |  |  |  |  |  |  |  | 
Cc1ccc(S(=O)(=O)NC2(C=O)CCCC3CCCCC32)cc1 (configuration not stated) | > 100 | > 100 | > 100 |  | > 100 | > 100 | > 100 | > 100 | > 100 | > 100 |  |  |  |  |  |  |  |  |  | 
NC(=O)/N=C1/CCC2C3CCCC2C13 | > 100 | > 100 | > 100 |  | > 100 | > 100 | > 100 | > 100 | > 100 | > 100 |  |  |  |  |  |  |  |  |  | 
CCC[CH2][Sn]1([CH2]CCC)[O]CC(CN(C)Cc2ccccc2)[O]1 (configuration not stated) | 16 | 29.2 | 30.5 |  | 18.4 | 7.79 | 23.1 | 17.7 | 20.6 | 2.08 | 5.31 | 15.7 |  | 2.75 |  | 5.89 | 14.8 | 7.2 | 6.35 | 0.473
CC(=O)OC(C)(C)/C(C)=C/C(=O)O[C@H]1C(=O)O[C@@H]2C[C@H]3[C@H](C)C(=O)C(O[C@@H]4O[C@H](CO)[C@@H](O)[C@H](O)[C@H]4O)=C[C@]3(C)[C@H]3[C@@H](O)[C@H](O)[C@@]4(C(=O)O)OC[C@]32[C@@H]14 | > 100 | > 100 | > 100 | > 100 | > 100 |  | > 100 | > 100 | > 100 | > 100 | > 100 | 37.5 | 27.6 |  | 37.3 | > 100 | > 100 | 55.9 | 25.9 | 48.2
Nc1nc2c(ncn2C2C=CC(CO)C2)c(=O)[nH]1 (configuration not stated) | > 100 | > 100 | > 100 | > 100 | > 100 | > 100 | > 100 | > 100 | > 100 |  |  |  |  |  |  |  |  |  |  | 
Cn1cnc([N+](=O)[O-])c1Sc1nccn1-c1cccc2ccccc12 | 30.3 | 60.3 | > 100 |  | 75.2 | 49.9 |  | 84.2 | 90.2 |  |  |  |  |  |  |  |  |  |  | 
Cc1cccc(C(C)(C)C)c1NC(=O)CC1C(=O)Nc2ccccc2S1(=O)=O (configuration not stated) |  | 22.3 | 21.8 |  | 18.1 | 17.2 | 29 | 25.5 | 10.2 | 10.7 |  |  |  |  |  |  |  |  |  | 
Nc1nnnn1CCO | > 100 | > 100 | > 100 | > 100 | > 100 | > 100 | > 100 | > 100 | > 100 |  |  |  |  |  |  |  |  |  |  | 
N=c1ccn(O)cc1/C=C1/C(=O)Nc2ccccc21 | > 100 | > 100 | > 100 | > 100 | > 100 | > 100 |  | > 100 | > 100 | > 100 | > 100 | > 100 | > 100 | > 100 |  | > 100 | > 100 | > 100 | > 100 | > 100
